Source: paper PMC10218449, “Evidence for Angiotensin II as a Naturally Existing Suppressor for the Guanylyl Cyclase A Receptor and Cyclic GMP Generation” (International Journal of Molecular Sciences, 2023)

Assays:
[1] = Circulating ANP levels in normal rats after infusion; assay type: in vivo, rat (Sprague-Dawley, male)
Method: (F) Urine output represented by urine volume collected at every 30 min interval during continuous infusion. (G) Urinary sodium excretion during the entire 90 min continuous infusion.
Protocols in this study have been approved by the Mayo Clinic Institutional Animal Care and Use Committee (IACUC). Rats (Sprague-Dawley, male, 10–11 weeks old) were anesthetized and maintained with 2% isoflurane. Rats were kept on heating pad at 37 °C for the entire experiment to maintain their body temperature. Polyethylene tubes (PE-50) were placed into a jugular vein for saline and peptides infusion and into a carotid artery for BP monitoring and blood sampling. The bladder was cannulated with a PE-90 tube for passive urine collection. […] After the 45 min equilibrium, BP was recorded, and blood was sampled as baseline reference value. […] Urine samples were collected every 30 min period and BP was measured every 15 min using CardioSOFT Pro software (Sonometrics Corporation). […] The volume of urine was measured, and the sodium concentrations were measured with an electrocyte analyzer (Diamond Diagnostics Inc., Holliston, MA, USA). Both plasma and urine samples were then stored at −80 °C until assayed. cGMP was measured in rat plasma and urine samples by a cGMP ELISA (Enzo Life Sciences, Farmingdale, NY, USA) as previously reported.

[2] = system: HEK293/GC-A^+/AT1^+ cells (human GC-A and AT1); assay: Intracellular cGMP generation in HEK293/GC-A+/AT1+ cells; assay type: cell-based; settings: valsartan 1 µM or Go6983 5 µM; ANP 10^−8 M, ANGII 10^−8 M; one-way ANOVA with Dunnett, p < 0.05
From the text: We leveraged HEK293 cells as a cellular tool for mechanistic exploration in the current study. HEK293 cells (passage 4–6) were maintained in Dulbecco’s modified Eagle’s medium (DMEM) supplemented with 10% fetal bovine serum, 100 U/mL penicillin, 100 U/mL streptomycin, and designated antibiotics. HEK293/GC-A^+ and HEK293/GC-B^+ cell lines were generated from HEK293 parental cell transfected with plasmids (OriGene, Rockville, MD, USA) containing either human GC-A or GC-B cDNA sequences. Both GC-A and GC-B plasmid carried sequences for a green florescence protein (GFP) tag and resistance to Neomycin (G418). HEK293/GC-A^+/AT1^+ and HEK293/GC-A^+/AT2^+ cell lines were generated from HEK293/GC-A^+ transfected with lentiviral particle with clones of either human AT1 or AT2 receptor (OriGene, Rockville, MD, USA) using a polybrene transfection agent. Initial transfection was completed with multiplicity of infection (MOI) at 20, 10, and 1. The lentiviral vector carried sequence for resistance to puromycin. Positive HEK293/GC-A^+ and HEK293/GC-B^+ cells were cultured in a regular medium with 250 μg/mL G418; Likewise, positive HEK293/GC-A^+/AT1^+ or HEK293/GC-A^+/AT2^+ cells were cultured in a regular medium with 250 μg/mL G418 (to select for GC-A^+ cells) and 1 μg/mL puromycin (to select for AT1^+ or AT2^+ cells). […]

[3] = system: p38 MAPK; assay: MAPK phosphorylation (p38 MAPK, western blot); assay type: cell-based, human; settings: Go6983 at 5 µM, HEK293/GC-A^+/AT1^+ cells
From the text: (§1) Figure 5 Involvement of PKC Signaling in the Crosstalk between ANGII and GC-A. (A) Protein expression of different human PKC isoforms in the membrane and cytosol fractions of different HEK293 cell lines (with or without treatment of ANGII). GC-A and NaK-ATPase serve as quality control for the separation of membrane and cytosol fractions. GAPDH serves as an additional control as it is primarily expressed in the cytosol fraction compared to membrane fraction. (B) Protein expression of phosphorylated PKC substrates, phosphorylated p38 MAPK, and p38 MAPK in HEK293/GC-A^+/AT1^+ cells treated with different PKC modulators. GAPDH serves as a loading control and 50 µg of total protein (determined using BCA method) was loaded in each lane. PMA, phorbol 12-myristate 13-acetate. […] (D) Hypothetical mechanism underlying the crosstalk between ANGII and GC-A derived from our in vitro studies: (1) ANGII naturally suppresses GC-A mediated cGMP production via AT1 receptor, but not the AT2 receptor nor direct effect on GC-A; (2) PKC is a critical downstream target of AT1 mediating this RAAS/NPS interaction.
(§2) HEK293 parental cells, HEK293/GC-A^+, HEK293/GC-B^+, HEK293/GC-A^+/AT1^+, and HEK293/GC-A^+/AT2^+ cells were cultured in 60 mm dish to reach 90–100% confluency before being harvested in RIPA buffer (Thermo Fisher Scientific, Waltham, MA, USA) with protease inhibitors. […]

[4] = system: PKC; assay: PKC activity (phosphorylated pan-PKC substrates, western blot); assay type: cell-based, human; settings: Go6983 at 5 µM, HEK293/GC-A^+/AT1^+ cells
From the text: as §1, §2

CC[C@H](C)[C@H](NC(=O)[C@H](Cc1ccc(O)cc1)NC(=O)[C@@H](NC(=O)[C@H](CCCNC(=N)N)NC(=O)[C@@H](N)CC(=O)O)C(C)C)C(=O)N[C@@H](Cc1cnc[nH]1)C(=O)N1CCC[C@H]1C(=O)N[C@@H](Cc1ccccc1)C(=O)O [ANGII, angiotensin II]
circulating ANP levels, effect of ANGII co-infusion (in words) ([1]; ANGII 50 pmol/kg/min with ANP 300 pmol/kg/min vs ANP alone, 90 min, N = 4 per group): no influence on circulating ANP levels

CCCCC(=O)N(Cc1ccc(-c2ccccc2-c2nnn[nH]2)cc1)[C@H](C(=O)O)C(C)C [valsartan]
rescue of ANGII suppression of ANP-induced cGMP (in words) [2]: significantly rescued the suppression effect of ANGII on ANP-induced cGMP

Go6983
rescue of ANGII suppression of ANP-induced cGMP (in words) [2]: significantly rescued the suppression effect of ANGII on ANP-induced cGMP | MAPK dependence of PKC inhibition (in words) [3]: mitogen-activated protein kinase (MAPK) independent manner | PKC activity inhibition (in words) [4]: effectively inhibited PKC activity

CC[C@H](C)[C@@H]1NC(=O)[C@H](CCCNC(=N)N)NC(=O)[C@H](CC(=O)O)NC(=O)[C@H](CCSC)NC(=O)[C@H](CCCNC(=N)N)NC(=O)CNC(=O)CNC(=O)[C@H](Cc2ccccc2)NC(=O)[C@@H](NC(=O)[C@H](CO)NC(=O)[C@H](CO)NC(=O)[C@H](CCCNC(=N)N)NC(=O)[C@H](CCCNC(=N)N)NC(=O)[C@H](CC(C)C)NC(=O)[C@@H](N)CO)CSSC[C@@H](C(=O)N[C@@H](CC(N)=O)C(=O)N[C@@H](CO)C(=O)N[C@@H](Cc2ccccc2)C(=O)N[C@@H](CCCNC(=N)N)C(=O)N[C@@H](Cc2ccc(O)cc2)C(=O)O)NC(=O)CNC(=O)[C@H](CC(C)C)NC(=O)CNC(=O)[C@H](CO)NC(=O)[C@H](CCC(N)=O)NC(=O)[C@H](C)NC(=O)CNC1=O [ANP, atrial natriuretic peptide]
circulating ANP level ([1]; ANP alone, 300 pmol/kg/min continuous i.v. infusion, plasma at 90 min, mean ± SEM, N = 4, endogenous level 15.3 ± 1.4 pg/mL): 18125.1 ± 1729.3 pg/mL
